Measurements published in patent US4983328A, “N-(4-(3-aminopropyl)aminobutyl)-2-(ω-gua nidino-fatty-acid-amido(-2-substituted-ethanamide, salt thereof, and process for preparation thereof” (Bristol-Myers Company, priority 1981, dated 1991).
Converted amounts (≈) assume the structure as drawn.

Assays:
[1] = test system: mouse leukemia L-1210 cells; test: growth inhibitory activity to cancer cells in vitro (L-1210, 48 hours); format: cell-based; details: for inhibition at 5 µg/mL: L1210, 5 mcg/ml; for inhibition at 5 µg/mL / inhibition at 10 µg/mL / inhibition at 20 µg/mL / inhibition at 40 µg/mL / inhibition at 80 µg/mL / inhibition at 1.25 µg/mL / inhibition at 2.5 µg/mL: read-out: Growth inhibition (%), (1-T/C) × 100; for inhibition at 10 µg/mL: L1210, 10 mcg/ml; for inhibition at 20 µg/mL: L1210, 20 mcg/ml; for inhibition at 40 µg/mL: L1210, 40 mcg/ml; for inhibition at 80 µg/mL: L1210, 80 mcg/ml; for IC50: L1210, L-1210 cells, read-out: 50% inhibitory concentration; for inhibition at 1.25 µg/mL: L1210, 1.25 mcg/ml; for inhibition at 2.5 µg/mL: L1210, 2.5 mcg/ml
Method: DBA/2 mice were implanted with 10^5 mouse leukemia L-1210 cells. The ascites collected asceptically from the mice after 4 days of feeding was washed three times with physiological saline to obtain L-1210 cells, which was then suspended in RPMI 1640 culture medium [G. E. Moore, Journal of the American Medical Association, Vol. 199, 519 (1967); H. J. Morton, In Vitro, Vol. 6, 89 (1970)] to which 10% fetal calf serum and 5 μM 2-mercaptoethanol had been added, and the resulting suspension was diluted to 5×10^4 L-1210 cells per 0.9 ml. A microplate carrying 0.9 ml of the cell suspension and 0.1 ml of the culture medium containing the sample being tested was kept in a carbon dioxide incubator at 37° C. After 48 hours of cultivation, the number of cells was measured by means of a Coulter Counter (Coulter Electronics, Inc., U.S.A.) to obtain the growth inhibition (%)=(1--T/C )×100=[1-(number of grown cells in medium containing sample/(number of grown cells in control medium)]×100. The 50% growth inhibitory concentration was calculated from the values of growth inhibition at varied sample concentrations. The results of tests on typical compounds of this invention for the growth inhibition of L-1210 cells were as shown in Table 6.

[2] = test system: mouse leukemia L-1210; test: therapeutic effect on implanted cancer in mice (L-1210, survival over 30 days); format: in vivo, mouse (BDF1); details: L1210, ip, 720 h, 6 days; for responders at 0.2 mg/kg / response vs control in vivo at 0.2 mg/kg: 0.20 mg/kg/day i.p.; for responders at 0.2 mg/kg / responders at 0.39 mg/kg / responders at 0.78 mg/kg / responders at 1.56 mg/kg / responders at 3.13 mg/kg / responders at 6.25 mg/kg / responders at 12.5 mg/kg / responders at 25 mg/kg / responders at 50 mg/kg: read-out: Number of mice survived for 30 days (converted); for responders at 0.39 mg/kg / response vs control in vivo at 0.39 mg/kg: 0.39 mg/kg/day i.p.; for responders at 0.78 mg/kg / response vs control in vivo at 0.78 mg/kg: 0.78 mg/kg/day i.p.; for responders at 1.56 mg/kg / response vs control in vivo at 1.56 mg/kg: 1.56 mg/kg/day i.p.; for responders at 3.13 mg/kg / response vs control in vivo at 3.13 mg/kg: 3.13 mg/kg/day i.p.; for responders at 6.25 mg/kg / response vs control in vivo at 6.25 mg/kg: 6.25 mg/kg/day i.p.; for responders at 12.5 mg/kg / response vs control in vivo at 12.5 mg/kg: 12.5 mg/kg/day i.p.; for responders at 25 mg/kg / response vs control in vivo at 25 mg/kg: 25 mg/kg/day i.p.; for responders at 50 mg/kg / response vs control in vivo at 50 mg/kg: 50 mg/kg/day i.p.
Text: BDF1 strain male mice (5 weeks old) were each inoculated intraperitoneally with 10^5 mouse leukemia L-1210 cells and treated once a day by intraperitoneal injection with a test compound dissolved in physiological saline for 6 consecutive days beginning from the day of inoculation. The mice were then observed for 30 days to determine the rate of prolongation of survival period=100×T/C=100×(average survival days of treated group)/(average survival days of control group).

[3] = acute toxicity in mice (single intraperitoneal administration); details: mouse, in vivo, ip; mice, single i.p.; read-out: LD50 (median lethal dose on single administration)
Method: (§1) In Table 8 median lethal doses (LD50) of typical compounds of this invention are shown, measured in mice upon single intraperitoneal administration, as well as maximum tolerated doses in terms of total dose when a fixed amount per unit body weight was administered intraperitoneally to mice once a day for 6 consecutive days.
*Median lethal dose on single administration.

[4] = cumulative toxicity in mice (maximum tolerated dose, once a day for 6 consecutive days); details: mouse, in vivo, ip, i.p. once a day for 6 consecutive days, total dose, read-out: Maximum Tolerated Dose (total dose not causing death)
Method: as §1
**Maximum value of the total dose not causing death when a fixed amount
per unit body weight is administered to mice once a day for 6 consecutive

[5] = read-out: Prolongation of survival period (%), T/C × 100

## N=C(N)NCCCCCCC=CC(=O)NC(O)C(=O)NCCCCNCCCN (centres unmarked) [Compound 18, N-[4-(3-aminopropyl)aminobutyl]-2-(9-guanidino-2-nonenamido)-2-hydroxyethanamide]
[1]
  inhibition at 5 µg/mL: 15.7%
  inhibition at 10 µg/mL: 20.9%
  inhibition at 20 µg/mL: 29.5%
  inhibition at 40 µg/mL: 32.3%
  inhibition at 80 µg/mL: 47.8%
  IC50: 90 µg/mL (≈ 218 µM)
[2]; 0.10 mg/kg/day i.p., read-out: Number of mice survived for 30 days
  responders at 0.1 mg/kg: 0%
[2]; 0.10 mg/kg/day i.p., read-out: Prolongation of survival period (%), T/C × 100
  response vs control in vivo at 0.1 mg/kg: 129%
[2]
  responders at 0.2 mg/kg: 0%
  responders at 0.39 mg/kg: 0%
  responders at 0.78 mg/kg: 0%
  responders at 1.56 mg/kg: 75%
  responders at 3.13 mg/kg: 100%
  responders at 6.25 mg/kg: 50%
  responders at 12.5 mg/kg: 0%
[2]; [5]
  response vs control in vivo at 0.2 mg/kg: 136%
  response vs control in vivo at 0.39 mg/kg: 157%
  response vs control in vivo at 0.78 mg/kg: 200%
  response vs control in vivo at 1.56 mg/kg: > 429%
  response vs control in vivo at 3.13 mg/kg: > 429%
  response vs control in vivo at 6.25 mg/kg: > 350%
  response vs control in vivo at 12.5 mg/kg: 0%
[3]
  LD50: 6.25 to 12.5 mg/kg
[4]
  MTD: > 37.5 mg/kg

## COC(NC(=O)C=CCCCCNC(=N)N)C(=O)NCCCCNCCCN (centres unmarked) [Compound 19, N-[4-(3-aminopropyl)aminobutyl]-2-(7-guanidino-2-heptenamido)-2-methoxyethanamide]
[1]
  inhibition at 1.25 µg/mL: 29.9%
  inhibition at 2.5 µg/mL: 32.2%
  inhibition at 5 µg/mL: 46.4%
  inhibition at 10 µg/mL: 56.4%
  inhibition at 20 µg/mL: 75.6%
  inhibition at 40 µg/mL: 85.4%
  inhibition at 80 µg/mL: 93.1%
  IC50: 6.3 µg/mL (≈ 15.8 µM)
[2]
  responders at 0.2 mg/kg: 0%
  responders at 0.39 mg/kg: 0%
  responders at 0.78 mg/kg: 0%
  responders at 1.56 mg/kg: 50%
  responders at 3.13 mg/kg: 50%
  responders at 6.25 mg/kg: 75%
  responders at 12.5 mg/kg: 50%
  responders at 25 mg/kg: 0%
[2]; [5]
  response vs control in vivo at 0.2 mg/kg: 100%
  response vs control in vivo at 0.39 mg/kg: 107%
  response vs control in vivo at 0.78 mg/kg: 164%
  response vs control in vivo at 1.56 mg/kg: > 350%
  response vs control in vivo at 3.13 mg/kg: > 321%
  response vs control in vivo at 6.25 mg/kg: > 429%
  response vs control in vivo at 12.5 mg/kg: > 364%
  response vs control in vivo at 25 mg/kg: 0%
[3]
  LD50: 12.5 to 25 mg/kg
[4]
  MTD: > 75 mg/kg

## COC(NC(=O)C[C@@H](O)CCCCNC(=N)N)C(=O)NCCCCNCCCN (some centres unmarked) [Compound 22, N-[4-(3-aminopropyl)aminobutyl]-2-(7-guanidino-3-hydroxyheptanamido)-2-methoxyethanamide]
[1]
  inhibition at 2.5 µg/mL: 60.8%
  inhibition at 5 µg/mL: 82.6%
  inhibition at 10 µg/mL: 94.5%
  inhibition at 20 µg/mL: 96.9%
  inhibition at 40 µg/mL: 98.3%
  IC50: 1.8 µg/mL (≈ 4.31 µM)
[2]
  responders at 1.56 mg/kg: 0%
  responders at 3.13 mg/kg: 0%
  responders at 6.25 mg/kg: 50%
  responders at 12.5 mg/kg: 62.5%
  responders at 25 mg/kg: 75%
  responders at 50 mg/kg: 0%
[2]; [5]
  response vs control in vivo at 1.56 mg/kg: 117%
  response vs control in vivo at 3.13 mg/kg: 163%
  response vs control in vivo at 6.25 mg/kg: > 332%
  response vs control in vivo at 12.5 mg/kg: > 380%
  response vs control in vivo at 25 mg/kg: > 414%
  response vs control in vivo at 50 mg/kg: 7%
[3]
  LD50: 25 to 50 mg/kg
[4]
  MTD: > 150 mg/kg

## N=C(N)NCCCCCCC(=O)NC(O)C(=O)NCCCCNCCCN (centres unmarked) [Compound 4, N-[4-(3-aminopropyl)aminobutyl]-2-(7-guanidinoheptanamido)-2-hydroxyethanamide]
[1]
  inhibition at 1.25 µg/mL: 20%
  inhibition at 2.5 µg/mL: 27.5%
  inhibition at 5 µg/mL: 29.9%
  inhibition at 10 µg/mL: 58.4%
  inhibition at 20 µg/mL: 75.5%
  inhibition at 40 µg/mL: 78.7%
  IC50: 8.1 µg/mL (≈ 20.9 µM)
[2]
  responders at 0.2 mg/kg: 0%
  responders at 0.39 mg/kg: 75%
  responders at 0.78 mg/kg: 100%
  responders at 1.56 mg/kg: 100%
  responders at 3.13 mg/kg: 50%
  responders at 6.25 mg/kg: 25%
  responders at 12.5 mg/kg: 50%
  responders at 25 mg/kg: 0%
  responders at 50 mg/kg: 0%
[2]; [5]
  response vs control in vivo at 0.2 mg/kg: 197%
  response vs control in vivo at 0.39 mg/kg: > 390%
  response vs control in vivo at 0.78 mg/kg: > 429%
  response vs control in vivo at 1.56 mg/kg: > 429%
  response vs control in vivo at 3.13 mg/kg: > 364%
  response vs control in vivo at 6.25 mg/kg: > 369%
  response vs control in vivo at 12.5 mg/kg: > 357%
  response vs control in vivo at 25 mg/kg: 336%
  response vs control in vivo at 50 mg/kg: 0%
[3]
  LD50: 25 to 50 mg/kg
[4]
  MTD: > 150 mg/kg

## N=C(N)NCCCCCCC(O)CC(=O)NC(O)C(=O)NCCCCNCCCN (centres unmarked) [Compound 21, N-[4-(3-aminopropyl)aminobutyl]-2-(9-guanidino-3-hydroxynonanamido)-2-hydroxyethanamide]
[1]
  inhibition at 1.25 µg/mL: 14.6%
  inhibition at 2.5 µg/mL: 21.5%
  inhibition at 5 µg/mL: 29.7%
  inhibition at 10 µg/mL: 37.5%
  inhibition at 20 µg/mL: 51.6%
  inhibition at 40 µg/mL: 84%
  inhibition at 80 µg/mL: 94.5%
  IC50: 18 µg/mL (≈ 41.7 µM)
[2]
  responders at 0.2 mg/kg: 0%
  responders at 0.39 mg/kg: 0%
  responders at 0.78 mg/kg: 0%
  responders at 1.56 mg/kg: 0%
  responders at 3.13 mg/kg: 0%
  responders at 6.25 mg/kg: 0%
  responders at 12.5 mg/kg: 0%
  responders at 25 mg/kg: 0%
  responders at 50 mg/kg: 0%
[2]; [5]
  response vs control in vivo at 0.2 mg/kg: 100%
  response vs control in vivo at 0.39 mg/kg: 100%
  response vs control in vivo at 0.78 mg/kg: 100%
  response vs control in vivo at 1.56 mg/kg: 114%
  response vs control in vivo at 3.13 mg/kg: 129%
  response vs control in vivo at 6.25 mg/kg: 164%
  response vs control in vivo at 12.5 mg/kg: 200%
  response vs control in vivo at 25 mg/kg: 229%
  response vs control in vivo at 50 mg/kg: 0%
[3]
  LD50: 25 to 50 mg/kg
[4]
  MTD: > 150 mg/kg
